How the values were obtained:
[1] = tested on: NOD mice injected with cyclophosphamide (CY); assay: Cyclophosphamide model: diabetes incidence in CY-injected NOD mice; assay type: in vivo; settings: 14.5 week-old NOD mice, CY 300 mg/kg i.p., Gleevec 1.5 mg/mouse/day oral for 7 weeks; FIG. 3
Protocol: 14.5 week-old NOD mice were injected intraperitoneally (i.p.) with cyclophosphamide (CY) (300 mg/kg) in conjunction with daily oral Gleevec therapy or control peanut oil. Gleevec treatment (1.5 mg/mouse/day) lasted 7 weeks. Mice were tested for diabetes based on blood glucose. Mice with two consecutive glucose readings of greater than 250 mg/dl were considered diabetic.

NOD mice [2] = assay: Treatment of new onset diabetic NOD mice with Gleevec (remission of diabetes, blood glucose); assay type: in vivo, mouse
Protocol: NOD mice were treated by gavage (oral) daily (M-F) with 50 mg/kg of commercially-available Gleevec suspended in peanut oil. Treatment was initiated at the time of disease onset (blood sugars above 250 mg/dl) and continued for the duration of the experiment.
(§1) Further studies were carried out to determine if Gleevec could be discontinued and maintain its efficacy. New onset mice were treated as above for only 3 weeks after onset and examined for disease recurrence (FIG. 1B). […] of mice (7/8) went into remission during the 3 weeks of therapy. For the majority of mice, remission was short lived as 5/8 mice (FIG. 1B, solid circles) became hyperglycemic within 1-2 weeks after cessation of drug therapy. However, 3/8 mice (FIG. 1B, open circles) remained in remission more than 6 weeks after the last dose of Gleevec. […] Ten week old NOD mice were treated daily with Gleevec ([…]) or peanut oil and followed for disease incidence. None of the Gleevec-treated and 50% of the peanut oil-treated mice were diabetic at 18 weeks of age.
Diabetic NOD mice (250-350 mg/dL) were treated with Gleevec for a short course (3 weeks) or longer courses (8-10 weeks) daily 3 times per week (3×/wk); and blood glucose assessed as described in Example 2. […] The majority of the daily, 8-10 week-treated group remained normal glycemic for >2 months after ending therapy. Peanut oil treatment had no effect in reversing diabetes.
In another dosing regimen, NOD mice were treated with Gleevec (100 mg/kg) by daily oral gavage Monday through Friday for 2 weeks, followed by daily Gleevec (100 mg/kg) via oral gavage three times per week for 6 weeks. Four of 5 mice went into disease remission.

NOD mice [3] = assay: Gleevec prevention studies in pre-diabetic NOD mice (diabetes incidence by blood glucose); assay type: in vivo, mouse
Protocol: as §1
Pre-diabetic NOD mice were treated with Gleevec for 7 weeks starting at 12 weeks of age. The Gleevec was emulsified in peanut oil and given by gavage (100 mg/kg) daily. Control animals were treated with peanut oil alone. Mice were tested for diabetes based on blood glucose. Mice with two consecutive glucose readings of greater than 250 mg/dl were considered diabetic.

[4] = 100 mg/kg oral gavage daily Monday-Friday for 2 weeks, then 100 mg/kg three times per week for 6 weeks
[5] = new onset mice, 50 mg/kg oral daily for only 3 weeks after onset, FIG. 1B

With CS(=O)(=O)O.Cc1ccc(NC(=O)c2ccc(CN3CCN(C)CC3)cc2)cc1Nc1nccc(-c2cccnc2)n1 [Gleevec] the “incidence of diabetes versus peanut oil-treated CY-treated control” value [1] was “significantly reduced”, the “mice going into remission” value (NOD mice [2]; 50 mg/kg oral gavage daily (M-F) in peanut oil, started at disease onset (blood sugars above 250 mg/dl), continued for duration of experiment, FIG. 1A) was “All of the treated mice went into remission” and the “relapse during the course of the study” value (NOD mice [2]; 50 mg/kg oral gavage daily (M-F), continuous treatment from onset, FIG. 1A) was “none relapsed”. The “mice that maintained normoglycemia for the duration of the experiment (>30 weeks after onset)” value (NOD mice [2]; [4]) was “Three of the 5”, the “mice that went into disease remission (number of total)” value (NOD mice [2]; [4]) was “Four of 5” and the “mice that remained in remission more than 6 weeks after the last dose (number/total)” value (NOD mice [2]; 3-week treatment, FIG. 1B open circles) was 3/8. For the same compound, the “mice that became hyperglycemic within 1-2 weeks after cessation of drug therapy (number/total)” value (NOD mice [2]; 3-week treatment, FIG. 1B solid circles) was 5/8, the “blood glucose levels maintained in treated mice” value (NOD mice [2]; NOD mice treated with Gleevec after onset) was “approximately 200 mg/dl” and the “time the majority of the group remained normal glycemic after ending therapy” value (NOD mice [2]; daily, 8-10 week-treated group) was over 2 months. The reversal of diabetes (NOD mice [2]; diabetic NOD mice (250-350 mg/dL), all treatments: 3 weeks or 8-10 weeks, daily or 3x/wk) was “effective in reversing diabetes in the majority of mice”, the “mice that went into remission during the 3 weeks of therapy (number/total)” value (NOD mice [2]; [5]) was 7/8 and the “percent of mice that went into remission during the 3 weeks of therapy” value (NOD mice [2]; [5]) was “Greater than 90%”. For the same compound, the “long term maintenance (>20 week) of normoglycemia” value (NOD mice [2]; short course 3 weeks versus long course 8-10 weeks) was “less evident in short term 3 week treatment) than long term 8-10 week treated mice”, the “percent of mice in which diabetes was prevented” value (NOD mice [3]; pre-diabetic NOD mice, 100 mg/kg gavage daily for 7 weeks starting at 12 weeks of age, diabetic = two consecutive glucose readings >250 mg/dl, FIG. 2) was 90% and the “mice diabetic at 18 weeks of age” value (NOD mice [3]; ten week old NOD mice treated daily (50 mg/ml as printed), preliminary experiments) was “None”.

— patent US20100210596A1, “USE OF AMINOPYRIMIDINE COMPOUNDS IN THE TREATMENT OF IMMUNE DISORDERS” (priority 2006, published 2010)
